What follows are compounds tested on A549 (assay: Cytotoxicity against human A549 cells).
Type: functional, cell-based

| SMILES | IC50 [µg/mL] |
| --- | --- |
| C#C/C=C\C[C@@H]1O[C@@H]2C[C@H](Br)[C@H](CC)O[C@@H]2C[C@@H]1Br | > 10 |
| CC[C@H]1O[C@@H]2C[C@@H](C=C=CBr)O[C@@H]2C[C@@H](O)[C@H](O)C[C@@H]1Br [LAURENDECUMALLENE A] | > 10 |
| CC[C@@H](Br)[C@H]1C[C@H](O)[C@H](O)C[C@H]2O[C@H](C=C=CBr)C[C@H]2O1 [LAURENDECUMALLENE B] | > 10 |
| C#C/C=C\C[C@H]1O[C@@H]2C[C@H](Br)[C@@H](CC)O[C@H]1C[C@H]2OO [LAURENDECUMENYNE A] | > 10 |
| C#C/C=C\C[C@@H]1O[C@@H]2C[C@H](Br)[C@H](CC)O[C@@H]2C[C@@H]1Cl [LAURENDECUMENYNE B] | > 10 |

From ChEMBL document CHEMBL1141271, “Laurendecumallenes A-B and laurendecumenynes A-B, halogenated nonterpenoid C(15)-acetogenins from the marine red alga Laurencia decumbens” (J Nat Prod, 2007)
